# In publication PMC3435281 (PLoS ONE, 2012):
# Key:
# murine AHR^d [1] = test: EROD activity in AHR^d-15 cells (rat hepatoma BP8 stably transfected with AHR^d); settings: 5L versus AHR^d-15 cells, 40 hours
# Excerpt: (§1) The 100 “hit compounds” from the primary screen were subsequently screened for their capacity to activate the low-affinity murine AHR^d receptor isoform using the activity of the endogenous Cyp1a1 gene as a readout. To this end, we established a hepatoma cell line that expresses the AHR^d receptor isoform derived from the DBA/2J mouse. An AHR^d-expressing cell line was generated by stably transfecting the AHR^d cDNA into the rat hepatoma AHR-deficient cell line, BP8 [15]. After stable selection with G418, a subclone (AHR^d-15) was analyzed for receptor expression and function. […] To confirm that the AHR^d-15 clone expressed a functional low affinity AHR^d isoform, we examined the receptor-mediated response to the prototype agonists, TCDD and β-naphthoflavone (BNF).
# (§2) To test the ability of the 100 AHR inducers to activate the AHR^d-15 cells, they were treated with each of the compounds at the dose of 1 µM, for 36 hours in 96-well plates.
# (§3) Figure 3 In Vitro dose response curves. A. Rat hepatoma cell lines bearing the murine AHR^d (AHR^d-15) or the rat AHR^b (5L) were incubated with increasing doses of TCDD in 96-well plates. After 40 hours, EROD activity was performed from whole cell lysate. (n = 3). […] (n = 3). C. Same assay as in A, with increasing doses of BNF. (n = 2). […] Following 48 hours, hepatic microsomal proteins were isolated and used for the assessment of EROD activity. Animals were treated in groups of 4. Error bars: S.D.
# (§4) The open reading frame of the AHR^d gene (PL2047) was amplified by PCR using oligos OL5127 (5′-[…]-3′) and OL5128 (5′-[…]-3′). The product was ligated into the pTARGET™ mammalian expression vector (Promega, Madison, WI). The resulting plasmid was transfected into the AHR-deficient cell line, BP8 [15], using Effectene transfection reagent (Qiagen Inc., Valencia, CA). Stable integrants were selected with 6 mg/ml of G418 for 2 weeks, beginning at 48-hours post-transfection. Clones derived from single cells were screened for their response to nanomolar doses of dioxin or micromolar doses of BNF, as measured by ethoxyresorufin O-deethylase (EROD) activity. […] The validated cell line used in these studies was designated line AHR^d-15.
# (§5) High-throughput analysis of EROD activity was assayed by adapting a protocol that was described elsewhere, [63]. Briefly, cells were seeded into 96-well plates at ∼ 60% density and treated with the test compounds for 36 hours. The cells were washed with PBS and lysed with 30 µL water and a cycle of freeze-thaw. To each well, 150 µL of 50 mM Hepes buffer containing 26.7 µM dicumarol and 13.3 µM ethoxyresorufin were added. The samples were incubated at 30°C for 20 minutes, and 50 µL of 0.5 mM β-NADPH were added to initiate the reaction. Fluorescence of the resorufin product was detected using the 544 nm excitation and 590 nm emission wavelength filter set.
# DBA/2J mice (AHR^d) = test: In vivo hepatic microsomal EROD activity, DBA/2J; design: species or system mouse; settings: oral 30, 80 or 120 mg/kg, 48 hours
# Protocol: (§6) We utilized the wild type rat hepatoma cell line, 5L, which harbors the high affinity AHR isoform, and our newly created AHR^d-15 cell line. […] Groups of control mice were given corn oil alone or BNF at the concentration of 120 mg/kg.
# as §3
# (§7) Hepatic microsomes were prepared by homogenizing 0.5 g of liver tissue in 5 mL of MENG buffer (25 mM buffer sodium morpholinopropane sulfonate buffer (pH 7.5) containing 0.025% (w/v) NaN3, 1 mM EGTA and 10% (v/v) glycerol). The homogenate was subjected to centrifugation at 10,000×g for 20 minutes, followed by centrifugation of the supernatant for 1 hour at 100,000×g and 4°C. The pellet was dissolved in 15 mM Tris-HCl buffer containing 250 mM sucrose (pH 8.0) and aliquots were stored at −80°C. Protein concentration was determined using the Bicinchoninic Acid Protein Assay Reagent (Pierce Biotechnology, Rockford, IL). […]
# C57BL/6J mice (AHR^b) = test: In vivo hepatic microsomal EROD activity, C57BL/6J; design: species or system mouse; settings: oral 30, 80 or 120 mg/kg, 48 hours
# Protocol: as §6, §3, §7
# murine AHR^d [2] = target: T1, murine AHR^d (Mus musculus, UniProt P30561, A375V); test: EROD activity in AHR^d-15 cells (rat hepatoma BP8 stably transfected with AHR^d)
# T1 sequence (P30561 10-848 A375V): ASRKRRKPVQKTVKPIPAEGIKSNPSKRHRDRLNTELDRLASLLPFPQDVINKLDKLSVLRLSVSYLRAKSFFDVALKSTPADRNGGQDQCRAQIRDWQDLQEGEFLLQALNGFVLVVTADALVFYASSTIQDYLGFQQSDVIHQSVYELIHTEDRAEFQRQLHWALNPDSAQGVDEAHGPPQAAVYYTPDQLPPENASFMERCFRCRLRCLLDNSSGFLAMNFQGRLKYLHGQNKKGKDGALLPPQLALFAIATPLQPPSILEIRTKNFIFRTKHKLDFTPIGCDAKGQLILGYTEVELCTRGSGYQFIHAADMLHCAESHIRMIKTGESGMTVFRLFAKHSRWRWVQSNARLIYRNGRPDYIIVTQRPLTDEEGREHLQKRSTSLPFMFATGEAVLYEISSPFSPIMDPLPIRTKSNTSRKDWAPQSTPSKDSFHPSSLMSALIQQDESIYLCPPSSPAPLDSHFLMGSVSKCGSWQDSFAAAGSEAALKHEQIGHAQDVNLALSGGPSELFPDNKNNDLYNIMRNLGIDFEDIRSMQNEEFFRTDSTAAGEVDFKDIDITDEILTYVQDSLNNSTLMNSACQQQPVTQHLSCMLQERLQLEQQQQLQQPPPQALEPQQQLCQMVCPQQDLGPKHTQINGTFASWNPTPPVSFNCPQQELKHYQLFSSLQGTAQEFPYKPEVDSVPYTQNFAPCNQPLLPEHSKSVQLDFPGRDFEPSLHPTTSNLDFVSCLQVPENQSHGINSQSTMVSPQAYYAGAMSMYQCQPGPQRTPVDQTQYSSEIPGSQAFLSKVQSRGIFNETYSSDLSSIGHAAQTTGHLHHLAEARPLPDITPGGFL
# Excerpt: as §1, §2, §3, §4, §5
SMILES,"cytochrome P450 induction (EROD), comparison of the two cell lines (murine AHR^d [1])",hepatic EROD activity (DBA/2J mice (AHR^d)),hepatic EROD activity (C57BL/6J mice (AHR^b)),EC50 (murine AHR^d [2]),"induction of AHR^d-mediated EROD activity (murine AHR^d [2]; AHR^d-15 cells, positive control 2 nM, 36 hours)"
"Cc1cc(C)c(C=C2C(=O)Nc3ccccc32)[nH]1 [SU5416, 3-(3,5-dimethyl-1H-pyrrol-2-ylmethylene)-1,3-dihydro-indole-2-one]",equal potency,dose-dependent increase,dose-dependent increase,,
"Clc1cc2c(cc1Cl)Oc1cc(Cl)c(Cl)cc1O2 [TCDD, 2,3,7,8-tetrachlorodibenzo-p-dioxin]",,,,~30 nM,greater than 5 fold
